Molecules are shown by their SMILES.

Data set [1] can be described thus: Inhibition of IL-1beta release in PMA-differentiated/ LPS and nigericin stimulated human THP-1 cells at 0.1 uM pretreated with LPS for 3 hrs followed by incubation with compound for 40 mins and later stimulated with nigericin for 40 mins by ELISA. In kind it is functional. Conditions: THP-1, 1.333 h, time 80 min. Background: An ELISA detects its analyte on a solid surface through an enzyme-linked reagent.

The nature of data set [2]: Inhibition of IL-1beta release in PMA-differentiated/ LPS and nigericin stimulated human THP-1 cells at 0.5 uM pretreated with LPS for 3 hrs followed by incubation with compound for 40 mins and later stimulated with nigericin for 40 mins by ELISA. The class given is functional. To be noted: THP-1, 1.333 h, time 80 min.
Data set [3] in a line: Inhibition of IL-1beta release in PMA-differentiated/ LPS and nigericin stimulated human THP-1 cells pretreated with LPS for 3 hrs followed by incubation with compound for 40 mins and later stimulated with nigericin for 40 mins by ELISA. The class given is functional, cell-based.
Data set [4] has as its target hERG (KCNH2) (Homo sapiens, UniProt Q12809). The experiment in a line: Inhibition of human ERG at 20 uM relative to control.

Sequence of hERG (KCNH2) (Q12809 whole entry): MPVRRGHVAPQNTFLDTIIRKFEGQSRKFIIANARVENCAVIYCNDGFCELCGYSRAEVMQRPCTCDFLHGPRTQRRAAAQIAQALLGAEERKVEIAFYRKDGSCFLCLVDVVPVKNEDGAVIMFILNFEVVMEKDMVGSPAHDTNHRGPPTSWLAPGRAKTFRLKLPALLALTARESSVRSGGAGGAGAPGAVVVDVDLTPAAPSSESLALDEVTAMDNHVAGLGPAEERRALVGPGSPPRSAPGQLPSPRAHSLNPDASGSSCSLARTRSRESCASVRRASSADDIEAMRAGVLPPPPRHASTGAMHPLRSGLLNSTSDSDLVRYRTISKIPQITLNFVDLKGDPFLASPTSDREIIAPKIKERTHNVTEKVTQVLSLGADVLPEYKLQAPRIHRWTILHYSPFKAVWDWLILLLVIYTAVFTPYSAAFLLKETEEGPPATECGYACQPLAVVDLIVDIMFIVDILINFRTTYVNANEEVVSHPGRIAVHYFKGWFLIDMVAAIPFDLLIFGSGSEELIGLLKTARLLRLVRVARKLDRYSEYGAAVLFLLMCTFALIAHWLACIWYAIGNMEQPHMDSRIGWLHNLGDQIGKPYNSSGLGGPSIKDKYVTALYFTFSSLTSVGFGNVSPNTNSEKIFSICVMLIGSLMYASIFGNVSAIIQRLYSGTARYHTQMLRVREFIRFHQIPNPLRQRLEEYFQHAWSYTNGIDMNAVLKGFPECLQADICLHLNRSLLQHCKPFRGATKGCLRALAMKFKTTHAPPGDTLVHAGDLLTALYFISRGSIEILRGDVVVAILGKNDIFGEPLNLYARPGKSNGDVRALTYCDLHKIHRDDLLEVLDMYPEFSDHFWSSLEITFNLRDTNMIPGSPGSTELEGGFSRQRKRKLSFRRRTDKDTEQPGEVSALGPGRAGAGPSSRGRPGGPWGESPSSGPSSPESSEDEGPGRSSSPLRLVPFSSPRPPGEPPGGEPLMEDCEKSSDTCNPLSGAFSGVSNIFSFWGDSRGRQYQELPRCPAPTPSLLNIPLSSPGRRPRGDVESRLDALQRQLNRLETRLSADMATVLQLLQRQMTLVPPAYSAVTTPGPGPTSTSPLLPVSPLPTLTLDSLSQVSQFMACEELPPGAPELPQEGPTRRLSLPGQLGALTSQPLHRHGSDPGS

As to `Oc1cc(C(F)(F)F)ccc1-c1nnc(N[C@@H]2CCCN(C3CCOC3)C2)c2c1C1CCC2CC1` (stereo partly drawn), the inhibition – broadly, the relative decrease from the control value, in per cent – at 0.1 µM in data set [1] came to 95.2%. Besides, the inhibition at 0.5 µM in data set [2] was 96.8%. For the same compound, the IC50 (commonly the point on the concentration scale where inhibition reaches its midpoint) in data set [3] was 49 nM.

As for `Oc1cc(C(F)(F)F)ccc1-c1nnc(N[C@@H]2CCCN(C3CCC3)C2)c2c1C1CCC2C1` (stereo partly drawn), the inhibition at 0.1 µM in data set [1] was 94.6%. The inhibition at 0.5 µM in data set [2] came to 97.2%. Further, in data set [3], the IC50 was 49 nM.

Take `CN1CCC[C@H](Nc2nnc(-c3ccc(C(F)(F)F)cc3O)c3c2C2CCC3C2)C1` (stereo partly drawn): the inhibition at 0.1 µM in data set [1] came out at 5.31%. In addition, in data set [2], the inhibition at 0.5 µM was found to be 3.09%.

For `Oc1cc(C(F)(F)F)ccc1-c1nnc(N[C@@H]2CCCN(C3CC(F)(F)C3)C2)c2c1C1CCC2CC1`, the inhibition at 0.1 µM in data set [1] is 96.3%. Moreover, the inhibition at 0.5 µM in data set [2] amounted to 97.4%. Further, the IC50 in data set [3] came out at 25 nM. In data set [4], the inhibition at 20 µM turned out to be 15.5%.

Consider `OCCN1CCC[C@@H](Nc2nnc(-c3ccc(C(F)(F)F)cc3O)c3c2C2CCC3CC2)C1`, for which, in data set [1], the inhibition at 0.1 µM worked out at 98.6%. Further, the inhibition at 0.5 µM in data set [2] worked out at 99.2%. Besides, in data set [3], the 50% inhibitory concentration (IC50) turned out to be 42 nM.

Consider `CN1CCC[C@@H](Nc2nnc(-c3ccc(C(F)(F)F)cc3O)c3c2C2CCC3CC2)C1`, for which the inhibition at 0.1 µM in data set [1] worked out at 97%. In data set [2], the inhibition at 0.5 µM was 97.4%. Further, in data set [3], the concentration for half-maximal inhibition (IC50) was 38 nM.

In the case of `Oc1c(-c2nnc(N[C@@H]3CCCN(C4CC(F)(F)C4)C3)c3c2C2CCC3CC2)ccc2sccc12`, in data set [1], the inhibition at 0.1 µM came to 61.9%. In addition, the inhibition at 0.5 µM in data set [2] turned out to be 96.9%. In addition, the half-maximal inhibitory concentration (IC50) in data set [3] turned out to be 57 nM. Further, the inhibition at 20 µM in data set [4] worked out at 69.4%.

Turning to `Oc1cc(C(F)(F)F)ccc1-c1nnc(N[C@@H]2CCCNC2)c2c1C1CCC2CC1`, in data set [1], the inhibition at 0.1 µM worked out at 46.5%. Also, in data set [2], the inhibition at 0.5 µM was 94.3%. Also, the IC50 in data set [3] is 103 nM.

`OC[C@@H](O)CNc1nnc(-c2ccc(C(F)(F)F)cc2O)c2c1C1CCC2CC1`: the inhibition at 0.1 µM in data set [1] was determined as 20.3%. Also, the inhibition at 0.5 µM in data set [2] came out at 74.5%.

Take `Cc1c(N[C@@H]2CCCC[C@H]2O)nnc(-c2ccc(C(F)(F)F)cc2O)c1C`: the inhibition at 0.1 µM in data set [1] was 97.8%. Also, the inhibition at 0.5 µM in data set [2] was determined as 98.3%. Moreover, the 50% inhibitory concentration (IC50) in data set [3] was determined as 12 nM.

Regarding `Cc1ccc(-c2nnc(N[C@@H]3CCCN(C4CC(F)(F)C4)C3)c3c2C2CCC3CC2)c(O)c1`, the inhibition at 0.1 µM in data set [1] was determined as 60.2%. Besides, in data set [2], the inhibition at 0.5 µM was 96.6%. Besides, in data set [3], the concentration for half-maximal inhibition (IC50) was found to be 53 nM. Moreover, the inhibition at 20 µM in data set [4] came out at 63.8%.

Regarding `Oc1cc(C(F)(F)F)ccc1-c1nnc(N[C@@H]2CCC[C@H](O)C2)c2c1C1CCC2CC1`, the inhibition at 0.1 µM in data set [1] worked out at 45%. Further, the inhibition at 0.5 µM in data set [2] was found to be 90.8%.

Take `N#Cc1ccc(-c2nnc(N[C@@H]3CCCN(C4CC(F)(F)C4)C3)c3c2C2CCC3CC2)c(O)c1`: in data set [1], the inhibition at 0.1 µM turned out to be 51.7%. The inhibition at 0.5 µM in data set [2] was 91.5%.

In the case of `CN1CC[C@@H](Nc2nnc(-c3ccc(C(F)(F)F)cc3O)c3c2C2CCC3C2)C1` (stereo partly drawn), the inhibition at 0.1 µM in data set [1] worked out at 12.1%. In addition, the inhibition at 0.5 µM in data set [2] turned out to be 32.7%.

As to `CN1CCC[C@@H](Nc2nnc(-c3ccc(C(F)(F)F)cc3O)c3c2C2CCC3C2)C1` (stereo partly drawn), the inhibition at 0.1 µM in data set [1] is 95%. Also, the inhibition at 0.5 µM in data set [2] came to 96.9%. The IC50 in data set [3] amounted to 38 nM.

On to `Oc1cc(C(F)(F)F)ccc1-c1nnc(N[C@@H]2CCCC[C@H]2O)c2c1CCCC2`, for which the inhibition at 0.1 µM in data set [1] turned out to be 92.4%. Besides, in data set [2], the inhibition at 0.5 µM came out at 98.3%. In data set [3], the concentration for half-maximal inhibition (IC50) was 6 nM. In addition, in data set [4], the inhibition at 20 µM came out at 84.1%.

As to `Oc1cc(C(F)(F)F)ccc1-c1nnc(N[C@@H]2CCCN(C3CC(F)(F)C3)C2)c2c1C1CCC2C1` (stereo partly drawn), in data set [1], the inhibition at 0.1 µM was 72.8%. Besides, in data set [2], the inhibition at 0.5 µM was found to be 96.3%. Moreover, in data set [3], the IC50 came out at 76 nM.

Turning to `Oc1cc(C(F)(F)F)ccc1-c1nnc(N[C@@H]2CCCN(CC3CC3)C2)c2c1C1CCC2C1` (stereo partly drawn), the inhibition at 0.1 µM in data set [1] was 83.9%. Moreover, in data set [2], the inhibition at 0.5 µM was 97.2%. Also, the IC50 in data set [3] stood at 87 nM.

In the case of `Oc1c(-c2nnc(N[C@@H]3CCOC3)c3c2C2CCC3CC2)ccc2occc12`, the inhibition at 0.1 µM in data set [1] was 25%. For the same compound, the inhibition at 0.5 µM in data set [2] was 30%.

`Oc1cc(OC(F)(F)F)ccc1-c1nnc(N[C@@H]2CCCN(C3CC(F)(F)C3)C2)c2c1C1CCC2CC1`: in data set [1], the inhibition at 0.1 µM worked out at 46.5%. In data set [2], the inhibition at 0.5 µM was 93.2%.

Take `Oc1cc(C(F)(F)F)ccc1-c1nnc(N[C@@H]2CCCN(C3COC3)C2)c2c1C1CCC2CC1`: in data set [1], the inhibition at 0.1 µM was 52.9%. Also, the inhibition at 0.5 µM in data set [2] turned out to be 96.5%.

On to `Oc1cc(C(F)(F)F)ccc1-c1nnc(N[C@@H]2CCCN(C3CCC3)C2)c2c1C1CCC2CC1`, for which, in data set [1], the inhibition at 0.1 µM turned out to be 96.8%. Further, in data set [2], the inhibition at 0.5 µM amounted to 97.1%. Also, the IC50 in data set [3] was 27 nM.

For `Oc1cc(C(F)(F)F)ccc1-c1nnc(N[C@@H]2CCCC[C@H]2O)c2c1C1CCC2C1` (stereo partly drawn), the inhibition at 0.1 µM in data set [1] stood at 43.5%. Further, the inhibition at 0.5 µM in data set [2] amounted to 95.6%. In addition, in data set [3], the IC50 amounted to 79 nM. Further, the inhibition at 20 µM in data set [4] amounted to 57.7%.

As to `Oc1cc(C(F)(F)F)ccc1-c1nnc(N[C@@H]2CCCC[C@H]2O)c2ccccc12`, in data set [1], the inhibition at 0.1 µM stood at 98.3%. Besides, the inhibition at 0.5 µM in data set [2] is 97.8%. Also, in data set [3], the 50% inhibitory concentration (IC50) came out at 9 nM. The inhibition at 20 µM in data set [4] was determined as 86%.

Take `Oc1cc(Cl)ccc1-c1nnc(N[C@@H]2CCCN(C3CC(F)(F)C3)C2)c2c1C1CCC2CC1`: the inhibition at 0.1 µM in data set [1] turned out to be 88%. For the same compound, the inhibition at 0.5 µM in data set [2] is 95.3%. For the same compound, the IC50 in data set [3] was 26 nM. Also, the inhibition at 20 µM in data set [4] came out at 23.9%.

Take `CN1CCO[C@H](CNc2nnc(-c3ccc4occc4c3O)c3c2C2CCC3CC2)C1`: the inhibition at 0.1 µM in data set [1] was 9.42%. Besides, the inhibition at 0.5 µM in data set [2] was determined as 36.5%.

As for `CN1C[C@H](Nc2nnc(-c3ccc4occc4c3O)c3c2C2CCC3CC2)CC(F)(F)C1`, in data set [1], the inhibition at 0.1 µM was determined as 55.5%. For the same compound, the inhibition at 0.5 µM in data set [2] was 97.7%.

On to `CCN1CCC[C@@H](Nc2nnc(-c3ccc(C(F)(F)F)cc3O)c3c2C2CCC3C2)C1` (stereo partly drawn), for which the inhibition at 0.1 µM in data set [1] came to 92.5%. In addition, the inhibition at 0.5 µM in data set [2] is 96.3%. Moreover, the IC50 in data set [3] was 27 nM.

As for `Oc1cc(C(F)(F)F)ccc1-c1nnc(N[C@@H]2CCCC[C@H]2O)c2c1C1CCC2CC1`, the inhibition at 0.1 µM in data set [1] was determined as 35.9%. Moreover, the inhibition at 0.5 µM in data set [2] came out at 85.8%. In addition, in data set [3], the 50% inhibitory concentration (IC50) amounted to 124 nM. Besides, the inhibition at 20 µM in data set [4] is -1.93%.

For `CC(C)(F)CN1CCC[C@@H](Nc2nnc(-c3ccc(C(F)(F)F)cc3O)c3c2C2CCC3CC2)C1`, the inhibition at 0.1 µM in data set [1] was 55.4%. The inhibition at 0.5 µM in data set [2] stood at 95.8%.

As for `N#CCN1CCC[C@@H](Nc2nnc(-c3ccc(C(F)(F)F)cc3O)c3c2C2CCC3C2)C1` (stereo partly drawn), the inhibition at 0.1 µM in data set [1] amounted to 7.6%. In data set [2], the inhibition at 0.5 µM came to 77%.

In the case of `CC(F)(F)CN1CCC[C@@H](Nc2nnc(-c3ccc(C(F)(F)F)cc3O)c3c2C2CCC3CC2)C1`, the inhibition at 0.1 µM in data set [1] is 29%. For the same compound, the inhibition at 0.5 µM in data set [2] came out at 49.9%.

`Oc1cc(C(F)(F)F)ccc1-c1nnc(N[C@@H]2CCCN(CC(F)F)C2)c2c1C1CCC2CC1`: the inhibition at 0.1 µM in data set [1] amounted to 19.7%. In addition, the inhibition at 0.5 µM in data set [2] is 73.8%.

The values are drawn from ChEMBL document CHEMBL5584341, “Discovery of Potent, Specific, and Orally Available NLRP3 Inflammasome Inhibitors Based on Pyridazine Scaffolds for the Treatment of Septic Shock and Peritonitis” (J Med Chem, 2024).
